MIC data for 4 molecules are collected here from DBAASP.

≈ marks a conversion by molar mass, not a printed value.

What all share (test): ≥ marks a high value that may be exact or a test limit, other limits are often not marked, values filed in µg/mL are converted to µM
Assay [1] deals with Bacillus subtilis ATCC 9372.
In assay [2] the test system is Burkholderia thailandensis.
The test system of assay [3] is Bacillus anthracis Sterne 34F2.
For assay [4], the system named is Proteus vulgaris KCTC 2433.
Assay [5] relates to Aspergillus fumigatus KCTC 6145.
The subject of assay [6] is Bacillus subtilis KCTC 1998.
In assay [7] the test system is Bacillus subtilis KCTC 1918.
The subject of assay [8] is Staphylococcus aureus CCARM 3089.
Assay [9] deals with Staphylococcus epidermidis KCTC 3096.
Assay [10] relates to Pseudomonas aeruginosa KCTC 1637.
For assay [11], the system named is Pseudomonas aeruginosa 3547.
Assay [12] concerns Aspergillus parasiticus KCTC 6598.
Assay [13] relates to Salmonella typhimurium KCTC 1926.
Assay [14] relates to Aspergillus awamori KCTC 6915.
Assay [15] relates to Salmonella typhimurium CCARM 8013.
The test system of assay [16] is Candida albicans KCTC 7270.
The subject of assay [17] is Trichosporon beigelii KCTC 7707.
Assay [18] deals with Staphylococcus epidermidis ATCC 12228.
The subject of assay [19] is Pseudomonas aeruginosa 4007.
Assay [20] relates to Escherichia coli CCARM 1238.
The test system of assay [21] is Pseudomonas aeruginosa ATCC 15692.
Assay [22] concerns Aspergillus flavus KCTC 6905.
Assay [23] has as its system Staphylococcus aureus CCARM 3114.
The subject of assay [24] is Salmonella typhimurium CCARM 8009.
Assay [25] concerns Escherichia coli CCARM 1229.
For assay [26], the system named is Staphylococcus aureus PBEL.
Assay [27] has as its system Listeria monocytogenes KCTC 3710.
Assay [28] concerns Listeria monocytogenes ATCC 19115.
Assay [29] relates to Escherichia coli 170.
In assay [30] the test system is Enterobacter cloacae 2524.
For assay [31], the system named is Pseudomonas aeruginosa 5106.
For assay [32], the system named is Escherichia coli ATCC 25922.
In assay [33] the test system is Klebsiella pneumoniae 913.
The test system of assay [34] is Klebsiella pneumoniae 1625.
For assay [35], the system named is Acinetobacter baumannii.
In assay [36] the test system is Enterobacter cloacae 6780.
Assay [37] has as its system Escherichia coli 4530.
In assay [38] the test system is Pseudomonas aeruginosa 4677.
Assay [39] has as its system Escherichia coli F470.
The subject of assay [40] is Escherichia coli F2513.
Assay [41] has as its system Micrococcus luteus ATCC 9341.
Assay [42] concerns Escherichia coli BW25113.
Assay [43] concerns Escherichia coli JW3605.
Assay [44] relates to Escherichia coli JW3596.

Regarding `CC[C@H](C)[C@@H]1NC(=O)CNC(=O)[C@H](CO)NC(=O)[C@H](CC(C)C)NC(=O)[C@H](CC(C)C)NC(=O)[C@H](CC(=O)O)NC(=O)[C@@H](NC(=O)[C@@H](NC(=O)[C@H](C)N)[C@@H](C)O)CSSC[C@@H]2NC(=O)[C@H](Cc3ccc(O)cc3)NC(=O)CNC(=O)CNC(=O)[C@H](CCCN=C(N)N)NC(=O)[C@H](CC(N)=O)NC(=O)CNC(=O)[C@H](CCCN=C(N)N)NC(=O)[C@H](Cc3ccccc3)NC(=O)[C@H](C(C)C)NC(=O)[C@@H]3CSSC[C@@H](C(=O)N[C@@H](CCCN=C(N)N)C(=O)N[C@@H](CC(N)=O)C(=O)O)NC(=O)[C@H](C(C)C)NC(=O)[C@H](CSSC[C@H](NC(=O)[C@H](C)NC(=O)[C@H](CO)NC(=O)[C@H](Cc4cnc[nH]4)NC(=O)[C@H](CCC(N)=O)NC(=O)[C@H](C(C)C)NC(=O)CNC1=O)C(=O)N[C@@H](C)C(=O)N[C@@H](CC(C)C)C(=O)N[C@@H](Cc1cnc[nH]1)C(=O)N3)NC(=O)[C@H]([C@@H](C)CC)NC(=O)CNC(=O)[C@H](CCCCN)NC(=O)CNC(=O)[C@H]([C@@H](C)O)NC2=O` [ATCDLLSGIGVQHSACALHCVFRGNRGGYCTGKGICVCRN], the values for the MIC in assay [1], in [2] and in assay [3] were 7.9 µM (≈ 32.7 µg/mL), at least 50 µM and at least 79 µM, respectively.

In the case of `CC[C@H](C)[C@H](NC(=O)[C@H](CCCCN)NC(=O)[C@H](CCCCN)NC(=O)[C@H](Cc1ccccc1)NC(=O)[C@H](CC(C)C)NC(=O)[C@H](CCCCN)NC(=O)[C@H](CCCCN)NC(=O)[C@H](CC(C)C)NC(=O)[C@H](CCCN=C(N)N)NC(=O)[C@H](CCCCN)NC(=O)[C@@H](N)Cc1ccccc1)C(=O)N[C@@H](Cc1c[nH]c2ccccc12)C(=O)N[C@@H](CC(N)=O)C(=O)N[C@@H](Cc1c[nH]c2ccccc12)C(=O)N[C@@H](CCCCN)C(N)=O` [FKRLKKLFKKIWNWK], the minimal inhibitory concentration (MIC) (as a rule, the least concentration at which growth counts as inhibited) in [4] was found to be 8 µM (≈ 16.5 µg/mL); in [5] it was 4 µM (≈ 8.25 µg/mL); in assay [6] it was 2 µM (≈ 4.13 µg/mL); in assay [7] it was 2 µM (≈ 4.13 µg/mL); in assay [8], 2 µM (≈ 4.13 µg/mL); in assay [9], 2.83 µM (≈ 5.83 µg/mL). For the same molecule, the MIC in assay [10] was 2 µM (≈ 4.13 µg/mL); in [11], 4 µM (≈ 8.25 µg/mL); in assay [12] it was 8 µM (≈ 16.5 µg/mL); in assay [13], 2 µM (≈ 4.13 µg/mL); in assay [14], 16 µM (≈ 33 µg/mL); in assay [15] it was 1 µM (≈ 2.06 µg/mL). Moreover, the minimum inhibitory concentration (MIC) came out at 8 µM (≈ 16.5 µg/mL) in assay [16]; 16 µM (≈ 33 µg/mL) in assay [17]; 2.83 µM (≈ 5.83 µg/mL) in assay [18]; 1 µM (≈ 2.06 µg/mL) in [19]; 2 µM (≈ 4.13 µg/mL) in [20]; 2 µM (≈ 4.13 µg/mL) in [21]. For the same molecule, the MIC in assay [22] came out at 16 µM (≈ 33 µg/mL); in assay [23] it was 2 µM (≈ 4.13 µg/mL); in assay [24], 4 µM (≈ 8.25 µg/mL); in assay [25], 2 µM (≈ 4.13 µg/mL); in assay [26], 1 µM (≈ 2.06 µg/mL); in assay [27], 2 µM (≈ 4.13 µg/mL). Besides, the minimal inhibitory concentration (MIC) in assay [28] came out at 2 µM (≈ 4.13 µg/mL).

Regarding `CC[C@H](C)[C@H](N)C(=O)N[C@@H](CCCCN)C(=O)N[C@@H](CO)C(=O)N[C@H](C(=O)N[C@@H](C)C(=O)N[C@@H](CO)C(=O)N[C@@H](CCCCN)C(=O)N[C@H](C(=O)N[C@@H](C)C(=O)N[C@@H](CC(N)=O)C(=O)N[C@H](C(=O)N[C@H](C(=O)N[C@@H](CCC(N)=O)C(=O)N[C@@H](CCCCN)C(=O)N[C@@H](CC(C)C)C(=O)N[C@@H](CCCCN)C(=O)N[C@@H](CCCN=C(N)N)C(=O)N[C@@H](CCCCN)C(=O)N[C@@H](C)C(=O)N[C@@H](CCCCN)C(=O)N[C@@H](CC(N)=O)C(=O)N[C@@H](C)C(=O)N[C@H](C(=O)O)C(C)C)C(C)C)[C@@H](C)O)C(C)C)[C@@H](C)CC` [IKSIASKVANTVQKLKRKAKNAV], the MIC was 3.12 µM (≈ 7.79 µg/mL) in assay [29]; at least 50 µM in assay [30]; at least 50 µM in [31]; 12.5 µM (≈ 31.2 µg/mL) in assay [32]; at least 50 µM in assay [33]; 3.12 µM (≈ 7.79 µg/mL) in [34]. Besides, the minimal inhibitory concentration (MIC) in assay [35] came out at 8.84 µM (≈ 22.1 µg/mL); in assay [36], 25 µM (≈ 62.4 µg/mL); in assay [37] it was 25 µM (≈ 62.4 µg/mL); in assay [38] it was 12.5 µM (≈ 31.2 µg/mL).

Turning to `CC[C@H](C)[C@H](N)C(=O)N[C@@H](CC(C)C)C(=O)N1CCC[C@H]1C(=O)N[C@@H](Cc1c[nH]c2ccccc12)C(=O)N[C@@H](CCCCN)C(=O)N[C@@H](Cc1c[nH]c2ccccc12)C(=O)N1CCC[C@H]1C(=O)N[C@@H](Cc1c[nH]c2ccccc12)C(=O)N[C@@H](Cc1c[nH]c2ccccc12)C(=O)N1CCC[C@H]1C(=O)N[C@@H](Cc1c[nH]c2ccccc12)C(=O)N[C@@H](CCCN=C(N)N)C(N)=O` [ILPWKWPWWPWR], the minimal inhibitory concentration (MIC) in [39] was determined as 18.3 µM (≈ 32 µg/mL); in assay [40], 6.46 µM (≈ 11.3 µg/mL); in assay [32] it was 18.3 µM (≈ 32 µg/mL); in assay [41], 0.8 µM (≈ 1.4 µg/mL); in assay [42], 18.3 µM (≈ 32 µg/mL); in assay [43], 18.3 µM (≈ 32 µg/mL). Besides, the MIC in assay [44] amounted to 2.28 µM (≈ 4 µg/mL).
